Test results: patent US6518278B1, “Carcinostatic substance for compatible administration, process of administrating same and process of rapidly inspecting same” (Debio Pharm S.A., priority 1994, dated 2003)
“Also recorded” adds a separate entry of the source.

System: human leutecyte strain cell (RPMI-8402)
Assay: Extinction effect of compatible administration of l-OHP and a compatible agent on tumor cells (compatible efficiency OE)
Assay type: cell-based
Conditions: for Compatible Effects of l-OHP and Compatible Agent, Simultaneous Administration: both added day 1
Description: In the evaluation of the extinction effect of the tumor cells of the respective combinations, a pure extinction effect produced by the compatible administration of the compatible agent and the l-OHP is calculated by subtracting an extinction effect of a control (no carcinostatic substance is employed).
The compatibly administration effect is calculated by employing an Equation (1) described later. When the value (%) calculated by this Equation is between 85 and 115%, the compatible administration effect is evaluated to be an additive effect. When the value is below 85%, it is evaluated to be below the additive effect. When the value is over 115%, it is evaluated to be a synergistic effect, ±15% is a reliability limit or a measurement error.
A target tumor cell was a human leutecyte strain cell (RPMI-8402 of Gibuko K.K.). To these cells was added blood serum of a cow embryo (15%, Gibuko K.K.) to prepare a cell floating liquid of which the number of the cells was 10^6/ml in a cultivation bottle (tradename; Sumiron of Sumitomo Bakelite o., Ltd.) having a volume of 6 ml. A plenty of the cultivation bottles having the cell floating liquid therein were prepared, and the following experiments were conducted while selecting one kind of a compatible agent among cisplatin, 5-FU, irinotecane, adriamycin, etoposide, mitomycin, mitoxantrone, bleomycin, vincristin and vindecin. The time schedules of the controls (no addition of medicines, addition of only the l-OHP and addition of only a compatible agent, and specified in the below items (1) to (4)) and of the compatible administration of the compatible agent and the l-OHP are shown in FIG. 10.
(1) No medicine was added (control).
(2) Only the l-OHP was added at a second day.
(3) A large amount of compatible agents were added at a first day ([…] of the cisplatin, 10 μg/ml of the 5-FU, 0.05 μg/ml of the adriamycin and 1 μg/ml of the etoposide, and for the comparison purpose, 0.05 μg/ml of the vincristin and 0.06 μg/ml of the vindecin). The adding amount of the irinotecano was fixed to 10 μg/ml, and the addition amount of the l-OHP was 5 μg/ml.
(4) A small amount of compatible agents were added at a first day (0.5 μg/ml of the cisplatin, 5 μg/ml of the 5-FU, 0.01 μg/ml of the adriamycin and 0.5 μg/ml of the etoposide, and for the comparison purpose, 0.01 μg/ml of the vincristin and 0.01 μg/ml of the vindecin). The adding amount of the irinotecane was fixed to 10 μg/ml, and the addition amount of the l-OHP was 1 μg/ml.
(5) The l-OHP and a large amount (the same as that of the above item (3) and so forth in the following items) of the compatible agents were simultaneously added at a first day.
(6) The l-OHP and a small amount (the same as that of the above item (4) and so forth in the following items) of the compatible agents were simultaneously added at a first day.
(7) The l-OHP was added at a first day and a large amount of the compatible agents were added at a second day.
(8) The l-OHP was added at a first day and a small amount of the compatible agents were added at a second day.
(9) The l-OHP was added at a first day and a large amount of the compatible agents were added at a third day.
(10) The l-OHP was added at a first day and a small amount of the compatible agents were added at a third day.
(11) The l-OHP was added at a first day and a large amount of the compatible agents were added at a fourth day.
(12) The l-OHP was added at a first day and a small amount of the compatible agents were added at a fourth day.
(13) A large amount of the compatible agents were added at a first day and the l-OHP was added at a second day.
(14) A small amount of the compatible agents were added at a first day and the l-OHP was added at a second day.
(15) A large amount of the compatible agents were added at a first day and the l-OHP was added at a third day.
(16) A small amount of the compatible agents were added at a first day and the l-OHP was added at a third day.

[1] = larger dosage of compatible agent (μg/ml: cisplatin 1, 5-FU 10, irinotecane 10, adriamycin 0.05, vincristin 0.05, vindecin 0.05, etoposide 1, bleomycin 10, mitoxantrone 0.1, mitomycine 1), l-OHP 1 μg/ml (5 μg/ml with irinotecane) added day 1
[2] = larger dosage of compatible agent (μg/ml: cisplatin 1, 5-FU 10, irinotecane 10, adriamycin 0.05, vincristin 0.05, vindecin 0.05, etoposide 1, bleomycin 10, mitoxantrone 0.1, mitomycine 1), l-OHP 1 μg/ml (5 μg/ml with irinotecane)
[3] = larger dosage of compatible agent added day 1 (μg/ml: cisplatin 1, 5-FU 10, irinotecane 10, adriamycin 0.05, vincristin 0.05, vindecin 0.05, etoposide 1, bleomycin 10, mitoxantrone 0.1, mitomycine 1), l-OHP 1 μg/ml (5 μg/ml with irinotecane)
[4] = smaller dosage of compatible agent (μg/ml: cisplatin 0.5, 5-FU 5, irinotecane 10, adriamycin 0.01, vincristin 0.01, vindecin 0.01, etoposide 0.5, bleomycin 1, mitoxantrone 0.05, mitomycine 0.5), l-OHP 1 μg/ml added day 1
[5] = smaller dosage of compatible agent (μg/ml: cisplatin 0.5, 5-FU 5, irinotecane 10, adriamycin 0.01, vincristin 0.01, vindecin 0.01, etoposide 0.5, bleomycin 1, mitoxantrone 0.05, mitomycine 0.5), l-OHP 1 μg/ml
[6] = smaller dosage of compatible agent added day 1 (μg/ml: cisplatin 0.5, 5-FU 5, irinotecane 10, adriamycin 0.01, vincristin 0.01, vindecin 0.01, etoposide 0.5, bleomycin 1, mitoxantrone 0.05, mitomycine 0.5), l-OHP 1 μg/ml

Compound	compatible administration effect with l-OHP, summary in words	Compatible Effects of l-OHP and Compatible Agent, Time Lag Administration, Addition Administration of Compatible Agent day 2 [1]	Compatible Effects of l-OHP and Compatible Agent, Time Lag Administration, Addition Administration of Compatible Agent day 3 [1]	Compatible Effects of l-OHP and Compatible Agent, Time Lag Administration, Addition Administration of Compatible Agent day 4 [1]	Compatible Effects of l-OHP and Compatible Agent, Simultaneous Administration [2]	Compatible Effects of l-OHP and Compatible Agent, Time Lag Administration, Addition Administration of l-OHP day 2 [3]	Compatible Effects of l-OHP and Compatible Agent, Time Lag Administration, Addition Administration of l-OHP day 3 [3]	Compatible Effects of l-OHP and Compatible Agent, Time Lag Administration, Addition Administration of l-OHP day 4 [3]	Compatible Effects of l-OHP and Compatible Agent, Time Lag Administration, Addition Administration of Compatible Agent day 2 [4]	Compatible Effects of l-OHP and Compatible Agent, Time Lag Administration, Addition Administration of Compatible Agent day 3 [4]	Compatible Effects of l-OHP and Compatible Agent, Time Lag Administration, Addition Administration of Compatible Agent day 4 [4]	Compatible Effects of l-OHP and Compatible Agent, Simultaneous Administration [5]	Compatible Effects of l-OHP and Compatible Agent, Time Lag Administration, Addition Administration of l-OHP day 2 [6]	Compatible Effects of l-OHP and Compatible Agent, Time Lag Administration, Addition Administration of l-OHP day 3 [6]	Compatible Effects of l-OHP and Compatible Agent, Time Lag Administration, Addition Administration of l-OHP day 4 [6]
COc1cccc2c1C(=O)c1c(O)c3c(c(O)c1C2=O)C[C@@](O)(C(=O)CO)C[C@@H]3O[C@H]1C[C@H](N)[C@H](O)[C@H](C)O1 [adriamycin]	the additive effect or the synergistic effect regardless of the administration method and the dosage in almost all the cases; also recorded: synergistic effects can be obtained in almost all the combinations when the l-OHP is added later	Δ (Δ: Below Additive Effect)	◯ (◯: Additive Effect)	◯ (◯: Additive Effect)	◯ (◯: Additive Effect)	◯ (◯: Additive Effect)	• (•: Synergistic Effect)	• (•: Synergistic Effect)	Δ (Δ: Below Additive Effect)	• (•: Synergistic Effect)	◯ (◯: Additive Effect)	◯ (◯: Additive Effect)	• (•: Synergistic Effect)	◯ (◯: Additive Effect)	• (•: Synergistic Effect)
bleomycin	the additive effect or the synergistic effect regardless of the administration method and the dosage in almost all the cases; also recorded: synergistic effects can be obtained in most combinations when the l-OHP is added later at a third day and a fourth day	Δ (Δ: Below Additive Effect)	◯ (◯: Additive Effect)	• (•: Synergistic Effect)	Δ (Δ: Below Additive Effect)	Δ (Δ: Below Additive Effect)	• (•: Synergistic Effect)	• (•: Synergistic Effect)	Δ (Δ: Below Additive Effect)	• (•: Synergistic Effect)	Δ (Δ: Below Additive Effect)	• (•: Synergistic Effect)	◯ (◯: Additive Effect)	• (•: Synergistic Effect)	◯ (◯: Additive Effect)
